Test results: ChEMBL document CHEMBL6109034, “Discovery of novel tetracyclic quinazolines as multi-KRASinhibitors for the treatment of solid tumors” (Bioorg Med Chem Lett, 2025)
The source made the active and inactive calls. No cut-off for these calls is given here.

Experiments:
ASPC1 = assay: Antiproliferative activity against human ASPC1 cells harbouring KRAS G12D mutant assessed as reduction in cell viability incubated for 72 hrs; format: functional, cell-based
SW-620 = assay: Antiproliferative activity against human SW620 cells harbouring KRAS G12V mutant assessed as inhibition of cell growth incubated for 72 hrs by Luminescence based assay; format: functional; details: SW-620, 72 h
GTPase KRas [1] = target: T1, GTPase KRas (Homo sapiens, UniProt P01116, G12D); assay: Inhibition of KRas G12D mutant in human ASPC1 cells assessed as inhibition of ERK phosphorylation at Thr202/Tyr204 residues incubated for 3 hrs by Western blot analysis; format: cell-based
GTPase KRas [2] = target: T1, GTPase KRas; assay: Inhibition of KRas G12D mutant in human SW620 cells assessed as inhibition of ERK phosphorylation at Thr202/Tyr204 residues incubated for 3 hrs by Western blot analysis; format: cell-based
HT-29 = assay: Antiproliferative activity against human HT-29 cells harbouring wild-type KRAS assessed as cell growth inhibition by CellTiter-Glo assay; format: functional, cell-based
[3] = test system: GTPase KRas (Homo sapiens), P01116 [G12D]; assay: Inhibition of KRas G12D mutant in human ASPC1 cells assessed as assessed as downregulation of DUSP4 at 0.05 to 300 nM incubated for 3 hrs by Western blot analysis; format: cell-based; details: dose 0.05-300 nM

N#Cc1c(N)sc2c(F)ccc(-c3c(Cl)c4c5c(nc(OC[C@@]67CCCN6C[C@H](F)C7)nc5c3F)N3CCCCC[C@@H]3CO4)c12
IC50 (ASPC1; Homo sapiens, ASPC1, 72 h): 3250 nM | IC50 (SW-620): 347 nM

Nc1nc2c(-c3c(Cl)c4c5c(nc(OC[C@@]67CCCN6C[C@H](F)C7)nc5c3F)N3CCCCCC3CO4)ccc(F)c2s1 (stereo not given in full)
IC50 (ASPC1; Homo sapiens, ASPC1, 72 h): 1150 nM | IC50 (SW-620): 151 nM

Nc1nc2c(-c3c(Cl)c4c5c(nc(OC[C@@]67CCCN6C[C@H](F)C7)nc5c3F)N3CCCOC[C@H]3CO4)ccc(F)c2s1
IC50 (ASPC1; Homo sapiens, ASPC1, 72 h): 1920 nM | IC50 (SW-620): 22.6 nM

Nc1nc2c(-c3c(Cl)cc4c(N5CCCOCC5)nc(OC[C@@]56CCCN5C[C@H](F)C6)nc4c3F)ccc(F)c2s1
IC50 (ASPC1; Homo sapiens, ASPC1, 72 h): 8240 nM | IC50 (SW-620): 208 nM

N#Cc1c(N)sc2c(F)ccc(-c3c(Cl)c4c5c(nc(OC[C@@]67CCCN6C[C@H](F)C7)nc5c3F)N3CCCCC[C@H]3CO4)c12
IC50 (ASPC1; Homo sapiens, ASPC1, 72 h): 354 nM | IC50 (SW-620): 2.6 nM

N#Cc1c(N)sc2c(F)ccc(-c3c(Cl)c4c5c(nc(OC[C@@]67CCCN6C[C@H](F)C7)nc5c3F)N3CCCOC[C@H]3CO4)c12 (single isomer, unassigned; atropisomer 1)
IC50 (ASPC1; aspc1): 8780 nM

N#Cc1c(N)sc2c(F)ccc(-c3c(Cl)c4c5c(nc(OC[C@@]67CCCN6C[C@H](F)C7)nc5c3F)N3CCCCCC3CO4)c12 (single isomer, unassigned; atropisomer 1)
IC50 (ASPC1; aspc1): 4000 nM

N#Cc1c(N)sc2c(F)ccc(-c3c(Cl)c4c5c(nc(OC[C@@]67CCCN6C[C@H](F)C7)nc5c3F)N3CCCOC[C@H]3CO4)c12 (single isomer, unassigned; atropisomer 2) [listing 1 of 2 here]
IC50 (ASPC1; aspc1): 378 nM | IC50 (SW-620): 0.6 nM | IC50 (GTPase KRas [1]): 0.6 nM | IC50 (GTPase KRas [2]): 1 nM | IC50 (HT-29): 3.23 µM

N#Cc1c(N)sc2c(F)ccc(-c3c(Cl)c4c5c(nc(OC[C@@]67CCCN6C[C@H](F)C7)nc5c3F)N3CCCCCC3CO4)c12 (single isomer, unassigned; atropisomer 2)
IC50 (ASPC1; aspc1): 713 nM | IC50 (SW-620): 4.4 nM

N#Cc1c(N)sc2c(F)ccc(-c3c(Cl)c4c5c(nc(OC[C@@]67CCCN6C[C@H](F)C7)nc5c3F)N3CCCOC[C@H]3CO4)c12 (single isomer, unassigned; atropisomer 2) [listing 2 of 2 here]
Activity [3]: Active
